Among the data in PubChem BioAssay AID179 (DTP/NCI, 2004) are outcome, EC50 and IC50 values, retold here.

The structures appear in SMILES notation. Activity calls are given as the source filed them.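 How the source made its calls: active means compounds giving half or more protection of infected cells from virus-caused growth loss, again on retest; inactive means the rest.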 Bounds are passed on as bounds.

The test system of the test is CEM cells HIV-1 protection, formazan growth assay. Nature of the test: NCI AIDS Antiviral Assay. Conditions: for IC50: measured here: growth of uninfected CEM cells. The method in brief: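 Protection of CEM cells against HIV-1 measured as cell growth via soluble formazan read-out, with five concentrations tested on both infected and uninfected cells; failure to protect may reflect toxicity.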

With `CC(NC(=O)C(C)NC(=O)C(N)CCP(C)(=O)O)C(=O)O` (configuration not stated), the result was inactive. Take `N#CC(c1ccccc1)N(CCc1ccccc1)C(=O)Oc1ccccc1` (configuration not stated): the EC50 (usually the concentration needed to bring the measured effect to its halfway point) was > 200 µM and the half-maximal inhibitory concentration (IC50) – broadly, the concentration that gives 50% inhibition – is > 200 µM.

Turning to `CC1=CC2(O)OC3(CC2=C(C)C)C(C)CCC13` (configuration not stated), the EC50 was > 200 µM and the IC50 is > 200 µM. As to `CCCCCCCCCCCCCCCCCCOC(COP(=O)(O)OCC1CCC(n2cnc3c(=O)[nH]cnc32)O1)COP(=O)(O)OCC1OC(n2cc(C)c(=O)[nH]c2=O)CC1N=[N+]=[N-]` (configuration not stated), the EC50 was 1.17 µM and the IC50 is 162 µM. As to `COc1ccc([C@H]2CC(=O)C[C@H](c3ccc(OC)cc3OC)C23C(=O)c2ccccc2C3=O)c(OC)c1`, the EC50 is > 200 µM and the IC50 amounted to 151 µM. `Cc1ccc2c(c1)nc1c3ccccc3nnn21`: the EC50 was > 16.2 µM and the IC50 was > 16.2 µM. With `O=S(=O)(O)CCCCBr`, the EC50 was > 200 µM and the IC50 is > 200 µM.

For `O=CNc1ccccc1OCCOc1ccccc1NC=O`, the EC50 is > 200 µM and the half-maximal inhibitory concentration (IC50) is > 200 µM. As for `Cc1ccc(-n2c3nc(=O)n(C)c(=O)c-3nc3ccccc32)c(C)c1`, the outcome was inactive. As to `C[N+](C)(C)/N=C/c1ccc(O)c(O)c1`, the EC50 is > 200 µM and the IC50 is > 200 µM. With `COc1cc2c(c3oc(=O)cc(C)c13)C(=O)[C@H](C)[C@@H](C)O2`, the EC50 was > 200 µM and the IC50 was 126 µM.

Turning to `CCCCCCCCCCCCCC(=O)CC(=O)c1c(O)cccc1O`, the outcome was inactive. Turning to `COC1OC2COC(c3ccccc3)OC2C(OS(=O)(=O)c2ccc(C)cc2)C1OS(=O)(=O)c1ccc(C)cc1` (configuration not stated), the outcome was inactive.

With `O=C(O)CCC1c2[nH]c3ccccc3c2CCN1Cc1ccccc1` (configuration not stated), the result was inactive. For the compound `O=C(NNC(=S)Nc1ccc(Cl)cc1)c1cc(-c2ccccc2)nc2ccccc12`, the EC50 is > 200 µM and the IC50 came out at 8.51 µM. Turning to `CC(C)=CCN1Cc2c(F)ccc3[nH]c(=S)n(c23)CC1C` (configuration not stated), the EC50 was 0.0398 µM and the IC50 is 70.8 µM.

Take `O=C1N[C@H]2c3c(Cl)sc(Cl)c3/C(=N/O)[C@H]2O1`: the EC50 is > 200 µM and the half-inhibitory concentration (IC50) was 95.5 µM. Regarding `Cc1cc2c(c(C(=O)NCCC(=O)O)c1)Oc1c(cc(C)cc1C(=O)NCCC(=O)O)S2`, the EC50 is > 200 µM and the half-inhibitory concentration (IC50) was > 200 µM. On to `CCOC(=O)C1C/C(C)=C(/C)SCCCS1` (configuration not stated), for which the EC50 was > 200 µM and the IC50 is 45.7 µM. The corresponding values for `CC1NC(=O)C(C)C(c2ccccc2)N(N=O)C1c1ccccc1` (configuration not stated) are > 209 µM and 186 µM. Turning to `OC1c2ccccc2[C@@H]2[C@H]1[C@@H](c1ccccc1)C1(Cc3ccccc3C1O)[C@H]2c1ccccc1` (some centres not stated), the EC50 was > 200 µM and the concentration for half-maximal inhibition (IC50) was found to be 9.12 µM. The corresponding values for `COC(=O)/C=C\C(C#N)(C#N)N=Cc1ccc(C)s1` are > 2 µM and 0.575 µM.

As for `CC1(C)COC(c2cccc(C3=NC(C)(C)CO3)n2)=N1`, the EC50 is > 26.3 µM and the 50% inhibitory concentration (IC50) is > 26.3 µM. As to `N#Cc1cccc(N2C(=O)c3c(c(-c4ccccc4)c(-c4ccc(Sc5ccc(-c6c(-c7ccccc7)c7c(c(-c8ccccc8)c6-c6ccccc6)C(=O)N(c6cccc(C#N)c6)C7=O)cc5)cc4)c(-c4ccccc4)c3-c3ccccc3)C2=O)c1`, the EC50 is > 12 µM and the IC50 is > 12 µM. In the case of `C[Si](C)(C)OC1(C2=CCCC2)CCCC1CC#N` (configuration not stated), the EC50 was > 955 µM and the IC50 is > 955 µM. On to `O=C(O)c1ccccc1O`, for which the EC50 is > 1820 µM, the result was inactive and the IC50 worked out at 692 µM.

Turning to `Cc1nc(C)c(N2CCN(Cc3ccccc3)CC2)c(=O)[nH]1`, the EC50 is > 200 µM and the IC50 was > 200 µM. In the case of `COC(=O)C(Cc1cn(C(C)n2cc(CC(NC(C)=O)C(=O)OC)c3ccccc32)c2ccccc12)NC(C)=O` (configuration not stated), the EC50 is > 81.3 µM and the concentration for half-maximal inhibition (IC50) stood at 74.1 µM.
